Consider four compounds from patent publication US4927835A, “Acylphenol derivatives, useful as anti-inflammatory agents and pain suppressants” (priority 1988, dated 1990).

Like-named read-outs stand apart in the source and are kept apart here.

A short description of series [1]: Inhibitory action to carrageenin edema (right hind paw). It is filed as in vivo, male rats (SD strain). The conditions noted are these: for ED30: read-out: (1) ED30, carrageenin edema. As to the method:
Seven male rats (SD strain; 6 weeks of age) were used in a group. The test compound was administered per os and, after one hour, 0.1 ml of 0.5% λ-carrageenin solution was injected subcutaneously into the right hind paw. After three hours, the volume of the right hind paw was measured with a plethysmometer (UGO-BASILE). The degree of swelling was calculated by subtracting the volume before the carrageenin from the post injection volume.
For orientation: The carrageenan paw model is a standard test of acute inflammation.

Series [2] can be described thus: Inhibitory action to acetic acid writhing. Type of series: in vivo, male mice (ddY strain). The conditions noted are these: for ED50: po, read-out: (2) ED50, acetic acid writhing. The protocol:
Six male mice (ddY strain; five weeks of age) were used in a group. The test compound was administered per os and, after one hour, 0.6% acetic acid was intraperitoneally injected at the dose of 0.1 ml/10 g and the total writhings within 20 minutes thereafter were counted. By comparing the number of writhings of the drug-treated group to that of the control group, the inhibitory rate was obtained and an ED50 value was calculated.
A general note: Writhing tests count abdominal constrictions after an irritant is injected.

Series [3] can be described thus: Inhibitory action to pain by heat stimulation (tail flick). Type of series: in vivo, male mice (ddY strain). Conditions: mouse, per os; for ED50: po, tail flick at 5, 15, 30, 45 and 60 minutes, read-out: (3) ED50, pain by heat stimulation. The protocol:
Ten male mice (ddY strain; five weeks of age) were used in a group. Radiated heat (250 watts; 4 cm distance from the heat source) was applied to the end of the tail of the mice. […] The test compound was administered per os and the time of appearance of the tail flick after 5, 15, 30, 45 and 60 minutes was measured. […] The maximum positive rate among the analgesically positive rates in each measuring time was defined as the analgesically positive rate at that dose and an ED50 value was calculated therefrom.

Series [4] is described as follows: Stomach disorder (ulcer generation). More on the design: species or system male rats (SD strain). The conditions noted are these: rat, in vivo, po; for selectivity ratio: ratio UD50/ED50, read-out: Safety Region (UD50 /ED50). The protocol: Ten male rats (SD strain; five weeks of age) were used in a group. The test compound dissolved or suspended in physiological saline solution was administered to them per os. The animals were than fasted for 17 hours, and 0.5 ml of 5% pontamine sky blue solution was injected intravenously and, after 10 minutes, they were sacrificed with ether. The stomach was removed from the animals, and about 8 ml of 5% formaline solution was injected into the stomach to provide a semifixing. The presence of the […] was checked using a stereoscopic microscope. Rats in which even one ulcer was observed was judged to be positive in ulcer generation and a UD50 value was calculated by a provit method.

A further series can be described thus: Acute toxicity. More on the design: species or system male rats (SD strain). Conditions: in vivo, po; rat, per os; 7 days; provit method; read-out: (5) LD50, acute toxicity. The protocol:
Test data showing the activity and superiority for compounds representative of those of the present invention is set forth below. In the tests, a representative compound of the present invention, namely 3-(1,1-Dimethylethyl)-4-hydroxy-5-[N-(2-hydroxyethyl)-N-methylaminomethyl]phenyl-2-thienyl ketone, the compound described in Example 4 (the "test compound"), was dissolved or suspended in 0.5% methylcellulose (MC) and administered as described.
Four male rats (SD strain; six weeks of age) were used in a group. The test compound was given per os and, after 7 days, the […] were monitored for life and an LD50 value was calculated by a provit method.

Series [5] can be described thus: Analgesic, anti-inflammatory and anti-pyretic activity, summary statement. It is filed as in vivo. The conditions noted are these: from the data in Table 1.
For series [6] the following is noted: values given in literature; cited from earlier work.
For series [7] the following is noted: Agents and Actions, vol. 12, page 5, 1982; cited from earlier work.
The mark [8] stands for this setting: rat, per os, carrageenin 1 hour after compound, paw volume after three hours.
Where [9] appears, read: mouse, per os, 0.6% acetic acid i.p. after one hour, writhings within 20 minutes.

As usually defined, the ED50 is the midpoint of the dose-response relation. As usually defined, the LD50 is the dose expected to kill half of the subjects tested. Regarding `CN(CCO)Cc1cc(C(=O)c2cccs2)cc(C(C)(C)C)c1O` [Example 4, 3-(1,1-Dimethylethyl)-4-hydroxy-5-[N-(2-hydroxyethyl)-N-methylaminomethyl]phenyl 2-thienyl ketone], in series [1] (rat, per os), the “inhibitory action to carrageenin edema, in words” value was “inhibitory action to carrageenin edema”. Also, the ED30 in series [1] (setting [8]) is 9.8 mg/kg. Further, in series [2] (mouse, per os), the “analgesic activity, inflammatory pain (acetic acid writhing), compared with codeine” value is recorded as “analgesic activity as strong as codeine”. Besides, in series [2] (setting [9]), the ED50 is 16.4 mg/kg. In series [3], the “analgesic activity, non-inflammatory pain (heat stimulation), compared with codeine” value is recorded as “analgesic activity as strong as codeine” and the ED50 was found to be 47 mg/kg. Moreover, in series [4], the TD50 amounted to 146 mg/kg and the selectivity ratio stood at 14.9. For the same compound, the LD50 at 168 h in “Acute toxicity” amounted to 1000 mg/kg. The “analgesic and anti-inflammatory activity, in words” value in series [5] was “strong analgesic and anti-inflammatory activity”.
`CC(C)(C)c1cc(C(=O)c2cccs2)cc(C(C)(C)C)c1O` [Example R-830, 3,5-di-tert-butyl-4-hydroxy-phenyl 2-thienyl ketone]: in series [1] (setting [8]), the ED30 worked out at 5.6 mg/kg. Also, in series [2] (setting [9]), the ED50 was determined as 22.4 mg/kg. In series [3] (at 500 mg/kg), the “(3) action on pain by heat stimulation (no ED50)” value is recorded as “no action at 500 mg/kg”. In addition, in series [4], the TD50 was 11.8 mg/kg and the selectivity ratio is 2.1. In addition, the “(5) LD50, acute toxicity” value in series [6] is listed as 1625 mg/kg. In addition, the “inhibitory action against carrageenin-induced edema, in words” value in series [7] is reported as “inhibitory action against carrageenin-induced edema”.
`COc1ccc2c(c1)c(CC(=O)O)c(C)n2C(=O)c1ccc(Cl)cc1` [Indomethacin]: in series [1] (Rattus norvegicus), the ED30 came out at 0.8 mg/kg. The ED50 in series [2] (Mus musculus) amounted to 2.1 mg/kg. Also, the “(3) action on pain by heat stimulation (no ED50)” value in series [3] (at 20 mg/kg) is “no action at 20 mg/kg”. Besides, in series [4] (per os, fasted 17 hours, provit method, read-out: (4) UD50, stomach ulcer generation), the TD50 worked out at 2.4 mg/kg. Moreover, the selectivity ratio in series [4] came out at 3.
On to `O=C(Cn1c(=O)sc2ccc(Cl)cc21)N1CCN(CCO)CC1` [Thiaramide], for which the ED30 in series [1] (setting [8]) came to 112 mg/kg. The ED50 in series [2] (setting [9]) was determined as 27.3 mg/kg. For the same compound, the ED50 in series [3] stood at 108 mg/kg. In series [4], the TD50 worked out at 278 mg/kg and the selectivity ratio was found to be 2.5. For the same compound, the “(5) LD50, acute toxicity” value in series [6] is on record as 4700 mg/kg.
